Test systems include UACC-62 melanoma; CCRF-CEM leukemia; MALME-3M melanoma; TK-10 renal; 786-0 renal; SNB-19 CNS; HOP-92 NSCLC; HL-60(TB) leukemia; RPMI-8226 leukemia; BT-549 breast.
Experiment in all cases: inhibition of tumour cell growth, NCI panel, 48 h

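Where inhibition never reached the appropriate level, the endpoint shown equals the highest concentration tested. Otherwise, values were interpolated linearly from a five-concentration, 48-hour dose response in 96-well plates. GI50 = concentration required for 50% inhibition of growth. TGI: concentration producing complete growth inhibition.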

Regarding `Nc1ccc(C(=O)N/C(=C\c2cccc([N+](=O)[O-])c2)c2nc3ccc(Cl)cc3[nH]2)cc1`, the TGI with UACC-62 melanoma, in the experiment with CCRF-CEM leukemia, in the experiment with MALME-3M melanoma, in the experiment with TK-10 renal, with 786-0 renal and in the experiment on SNB-19 CNS was more than 100 µM each time. Also, the TGI in the experiment on HOP-92 NSCLC was 75.8 µM.
For `Cc1nc2c(sc(=S)n2-c2ccccc2)c2nc3ccccc3n12`, the TGI in the experiment with UACC-62 melanoma, with CCRF-CEM leukemia, in the experiment with MALME-3M melanoma, with TK-10 renal, in the experiment with HL-60(TB) leukemia and with RPMI-8226 leukemia was more than 100 µM in each case. For the same compound, the TGI in the experiment with 786-0 renal and with SNB-19 CNS was more than 100 µM each time.
For `NC(=O)C12CC3CC(CC(Br)(C3)C1)C2`, the TGI in the experiment with UACC-62 melanoma, in the experiment with CCRF-CEM leukemia, in the experiment with TK-10 renal, in the experiment with HL-60(TB) leukemia, in the experiment on RPMI-8226 leukemia and in the experiment on 786-0 renal was more than 100 µM throughout. In addition, the TGI in the experiment on SNB-19 CNS and in the experiment with HOP-92 NSCLC was more than 100 µM throughout.
As to `COc1ccc2c(c1)C(=O)c1c-2n(CCCN)c(=O)c2cc([N+](=O)[O-])ccc12`, the GI50 is less than 0.01 µM in the experiment on UACC-62 melanoma; less than 0.01 µM in the experiment on CCRF-CEM leukemia; 2.25 µM with MALME-3M melanoma; 3.33 µM in the experiment with TK-10 renal; less than 0.01 µM in the experiment on BT-549 breast; less than 0.01 µM with RPMI-8226 leukemia. The GI50 in the experiment on 786-0 renal and in the experiment on SNB-19 CNS was less than 0.01 µM throughout. In addition, the TGI was less than 0.01 µM with UACC-62 melanoma; less than 0.01 µM with CCRF-CEM leukemia; 7.64 µM with MALME-3M melanoma; 10 µM with TK-10 renal; less than 0.0222 µM in the experiment on RPMI-8226 leukemia; less than 0.01 µM in the experiment with 786-0 renal. The compound further returned a TGI with SNB-19 CNS of 2.13 µM.
As to `Cc1ccc(NC(=O)CC2SC(N)=NC2=O)cc1C` (stereo unspecified), the TGI in the experiment with UACC-62 melanoma, in the experiment on MALME-3M melanoma, in the experiment with TK-10 renal, in the experiment with HL-60(TB) leukemia, with RPMI-8226 leukemia and in the experiment with 786-0 renal was more than 100 µM each time. Further, the TGI in the experiment with SNB-19 CNS and in the experiment with HOP-92 NSCLC was more than 100 µM throughout.
With `COc1ccc(-c2ccc(/C=N/n3c(COc4ccccc4Cl)n[nH]c3=S)o2)c([N+](=O)[O-])c1`, the GI50 with CCRF-CEM leukemia is 23.1 µM; in the experiment on TK-10 renal, 13.2 µM; with HL-60(TB) leukemia it was 22.4 µM; in the experiment with RPMI-8226 leukemia, 24.9 µM; with 786-0 renal it was 28.4 µM; in the experiment with SNB-19 CNS it was 42.2 µM. Further, the TGI with CCRF-CEM leukemia is more than 100 µM; in the experiment on TK-10 renal, 39.5 µM; in the experiment with HL-60(TB) leukemia it was 56.4 µM; with RPMI-8226 leukemia, 92.9 µM; in the experiment on 786-0 renal, more than 100 µM; with SNB-19 CNS it was more than 100 µM.
As to `O=C(CCc1nc(=S)[nH][nH]1)Nc1cccc(C(F)(F)F)c1`, the TGI in the experiment with UACC-62 melanoma, in the experiment with CCRF-CEM leukemia, in the experiment on MALME-3M melanoma, in the experiment with TK-10 renal, in the experiment with HL-60(TB) leukemia and in the experiment on RPMI-8226 leukemia was more than 100 µM each time. The TGI in the experiment with 786-0 renal, in the experiment with SNB-19 CNS and in the experiment with HOP-92 NSCLC was more than 100 µM throughout.
`NCCC(=O)NC(Cc1cnc[nH]1)C(=O)O` (stereo unspecified): the TGI with CCRF-CEM leukemia, in the experiment on MALME-3M melanoma, in the experiment with TK-10 renal, with HL-60(TB) leukemia, in the experiment with RPMI-8226 leukemia and in the experiment with 786-0 renal was more than 100 µM throughout. The TGI in the experiment with SNB-19 CNS and in the experiment with HOP-92 NSCLC was more than 100 µM in each case.
Turning to `N/C(=N\c1nc2ccccc2s1)NC(=NC1CCCCC1)NC1CCCCC1`, the GI50 with UACC-62 melanoma was 1.61 µM; in the experiment on CCRF-CEM leukemia, 2.46 µM; in the experiment on MALME-3M melanoma it was 1.52 µM; with TK-10 renal, 1.64 µM; in the experiment with BT-549 breast, 1.65 µM; in the experiment with HL-60(TB) leukemia it was 1.83 µM. For the same compound, the GI50 was 1.65 µM with 786-0 renal and 1.59 µM in the experiment with SNB-19 CNS. For the same compound, the TGI in the experiment with UACC-62 melanoma amounted to 3.01 µM; in the experiment with CCRF-CEM leukemia it was 9.28 µM; with MALME-3M melanoma it was 3.13 µM; with TK-10 renal it was 3.28 µM; with BT-549 breast, 3.22 µM; with HL-60(TB) leukemia, 4.35 µM. Moreover, the TGI came out at 3.23 µM in the experiment with 786-0 renal and 3.02 µM in the experiment on SNB-19 CNS.
Regarding `CCC[CH2][Sn]([CH2]CCC)([O]C(=O)/C=C/c1ccccc1F)[O]C(=O)/C=C/c1ccccc1F`, the GI50 with UACC-62 melanoma was 1.17 µM; with CCRF-CEM leukemia, 0.139 µM; in the experiment on MALME-3M melanoma, 0.385 µM; in the experiment on TK-10 renal, 0.898 µM; in the experiment on HL-60(TB) leukemia it was 0.536 µM; in the experiment on RPMI-8226 leukemia, 0.222 µM. Also, the results for the GI50 in the experiment with 786-0 renal, in the experiment with SNB-19 CNS and in the experiment with HOP-92 NSCLC were 0.384 µM, 0.788 µM and 0.415 µM, respectively. Further, the TGI with UACC-62 melanoma stood at 2.59 µM; in the experiment with CCRF-CEM leukemia, 0.616 µM; in the experiment on MALME-3M melanoma, 1.6 µM; with TK-10 renal it was 2.03 µM; with HL-60(TB) leukemia it was 4.87 µM; in the experiment with RPMI-8226 leukemia, 1.2 µM. Also, the TGI amounted to 1.17 µM in the experiment with 786-0 renal, 2.07 µM with SNB-19 CNS and 1.37 µM in the experiment with HOP-92 NSCLC.
`COCCOCOC(C)(C)[C@H](CCOC(C)=O)O[Si](c1ccccc1)(c1ccccc1)C(C)(C)C`: the TGI in the experiment with UACC-62 melanoma turned out to be 55.3 µM; in the experiment on CCRF-CEM leukemia, 23.7 µM; in the experiment on MALME-3M melanoma, 55.3 µM; in the experiment on TK-10 renal it was 87.1 µM; with HL-60(TB) leukemia, 10.4 µM; with RPMI-8226 leukemia it was 15.1 µM. Further, the TGI was 58.9 µM in the experiment on 786-0 renal, more than 100 µM with SNB-19 CNS and 27.9 µM in the experiment on HOP-92 NSCLC.
With `COc1ccc(Cc2nc3ccccc3s2)cc1OC`, the TGI in the experiment on UACC-62 melanoma was found to be 31.4 µM; in the experiment with CCRF-CEM leukemia it was 44.7 µM; in the experiment on MALME-3M melanoma, 32.6 µM; in the experiment on TK-10 renal it was 84.7 µM; in the experiment on HL-60(TB) leukemia, 45.3 µM; in the experiment on RPMI-8226 leukemia, 70.9 µM. The TGI in the experiment on 786-0 renal is 31.9 µM; in the experiment with SNB-19 CNS it was 99.9 µM; with HOP-92 NSCLC it was 36.5 µM.
With `Nc1ncnc2c1nnn2C1C=C(CO)C(O)C1O` (stereo unspecified), the TGI in the experiment with UACC-62 melanoma was more than 100 µM; in the experiment on CCRF-CEM leukemia, more than 100 µM; in the experiment with MALME-3M melanoma it was more than 100 µM; in the experiment on TK-10 renal, more than 100 µM; in the experiment with HL-60(TB) leukemia, 28.5 µM; in the experiment on RPMI-8226 leukemia, more than 62.7 µM. For the same compound, the values for the TGI with 786-0 renal, in the experiment with SNB-19 CNS and in the experiment with HOP-92 NSCLC were more than 100 µM, more than 100 µM and more than 80.2 µM, respectively.
